Tested on: HIV-1IIIB
Assay: Two-drug combination antiviral assay in CEM cells (CPE), MacSynergy II
Format: cell-based
Conditions: for Antagonism Volume, Result 1 / Antagonism Volume, Result 2 / Antagonism Volume, Result 3 / Mean Antagonism Volume (n = 3) / Mean Synergy Volume (n = 3) / Synergy Volume, Result 1 / Synergy Volume, Result 2 / Synergy Volume, Result 3: in combination with CMX157, CEM-SS cells, 95% confidence; for Interpretation of Antiviral Results (MacSynergy): two-drug combination (with CMX157; control d4T/RBV), CEM-SS cells

SMILES | Antagonism Volume, Result 1 | Antagonism Volume, Result 2 | Antagonism Volume, Result 3 | Mean Antagonism Volume (n = 3) | Mean Synergy Volume (n = 3) | Synergy Volume, Result 1 | Synergy Volume, Result 2 | Synergy Volume, Result 3 | Interpretation of Antiviral Results (MacSynergy)
O=C1Nc2ccc(Cl)cc2C(C#CC2CC2)(C(F)(F)F)O1 (stereo not drawn) [Efavirenz (EFV), 6-chloro-4-cyclopropylethynyl-4-trifluoromethyl-1,4-dihydro-2H3,1-benzoxazin-2-one] | 0 nM^2 %, μM^2 % or nMμM % | 0 nM^2 %, μM^2 % or nMμM % | 0 nM^2 %, μM^2 % or nMμM % | 0 nM^2 %, μM^2 % or nMμM % | 69.8 nM^2 %, μM^2 % or nMμM % | 85.7 nM^2 %, μM^2 % or nMμM % | 80.6 nM^2 %, μM^2 % or nMμM % | 43.2 nM^2 %, μM^2 % or nMμM % | slightly synergistic
CC(C)CN(C[C@@H](O)[C@H](Cc1ccccc1)NC(=O)O[C@H]1CCOC1)S(=O)(=O)c1ccc(N)cc1 [Amprenavir (APV), amprenavir] | 0 nM^2 %, μM^2 % or nMμM % | 0 nM^2 %, μM^2 % or nMμM % | 0 nM^2 %, μM^2 % or nMμM % | 0 nM^2 %, μM^2 % or nMμM % | 51.4 nM^2 %, μM^2 % or nMμM % | 104 nM^2 %, μM^2 % or nMμM % | 43.1 nM^2 %, μM^2 % or nMμM % | 7.31 nM^2 %, μM^2 % or nMμM % | slightly synergistic
CCC[C@@]1(CCc2ccccc2)CC(O)=C([C@H](CC)c2cccc(NS(=O)(=O)c3ccc(C(F)(F)F)cn3)c2)C(=O)O1 [Tipranavir (TPV), tipranavir] | 0 nM^2 %, μM^2 % or nMμM % | −8.60 nM^2 %, μM^2 % or nMμM % | 0 nM^2 %, μM^2 % or nMμM % | −2.87 nM^2 %, μM^2 % or nMμM % | 52.2 nM^2 %, μM^2 % or nMμM % | 110 nM^2 %, μM^2 % or nMμM % | 29.4 nM^2 %, μM^2 % or nMμM % | 16.8 nM^2 %, μM^2 % or nMμM % | 
COC(=O)N[C@H](C(=O)N[C@@H](Cc1ccccc1)[C@@H](O)CN(Cc1ccc(-c2ccccn2)cc1)NC(=O)[C@@H](NC(=O)OC)C(C)(C)C)C(C)(C)C [Atazanavir (ATV), atazanavir] |  |  |  |  |  |  |  |  | slightly synergistic
Nc1ccn([C@H]2CC[C@@H](CO)O2)c(=O)n1 [Zalcitabine (ddC), 2′,3′-dideoxycytidine] | 0 nM^2 %, μM^2 % or nMμM % | 0 nM^2 %, μM^2 % or nMμM % | −15.9 nM^2 %, μM^2 % or nMμM % | −5.29 nM^2 %, μM^2 % or nMμM % | 122 nM^2 %, μM^2 % or nMμM % | 154 nM^2 %, μM^2 % or nMμM % | 80.0 nM^2 %, μM^2 % or nMμM % | 131 nM^2 %, μM^2 % or nMμM % | highly synergistic

Source: patent US8993542B2, “Methods of treating viral infections” (priority 2008, dated 2015)
